{
  "source": "patent US20210137934A1",
  "about": "“METHODS OF IDENTIFYING MYC-DRIVEN AND LIPOGENESIS-DEPENDENT NEOPLASMS AND METHODS OF TREATING THE SAME” (The Board of Trustees of the Leland Stanford Junior …, priority 2017, published 2021)",
  "key": {"[1]": {"system": "human RCC tumor derived cell line, 786-0", "assay": "Human RCC 786-O cell line treated in vitro", "format": "cell-based", "conditions": "786-0 cell line treated in vitro", "method": "(§1) Cell culture conditions. P493-6 cells are cultured in Gibco's RPM11640 media under normal culture conditions of 20% O2, 4% CO2, and 37° C. P493 cells are suspension cells, and they are kept at 0.2-1.8 million cells/ml density to avoid confluency. In order to turn off Myc, 1 μg/ml of tetracycline is applied to the media for 48 hours to completely suppress Myc. Mouse-derived renal carcinoma line E28 and human RCC 786-O cell line are cultured for in vitro experiments under normal culture conditions of 20% O2, 4% CO2, and 37° C. 786-O and E28 cells are maintained in Dulbecco's Modified Eagle Medium (DMEM), which is supplemented with 10% fetal bovine serum (FBS), 1% L-glutamine, 1% sodium pyruvate, 1% nonessential amino acids, and Antibiotic-Antimycotic. Trypsin-EDTA is used to passage E28 and 786-O cells. All cell culture reagents are purchased from Gibco® (Thermo Fisher Scientific Inc.).\n(§2) Small molecule inhibitors. The small molecule, TOFA (Sigma), diluted in dimethyl sulfoxide (DMSO) to the desired concentrations is added to cell culture medium to achieve inhibition of ACACA. TOFA is an allosteric inhibitor of ACACA, the enzyme which catalyzes the rate-limiting step of fatty acid synthesis. Various concentrations of TOFA are administered to cells in culture over time to assess dose-response suppression of proliferation. […]"}, "[2]": {"system": "RCC (E28) cells", "assay": "In vitro cell proliferation by total live cell counts, E28", "format": "cell-based, mouse", "conditions": "for cell growth / proliferation (total live cell counts): various concentrations", "method": "as §1\n(§3) Small molecule inhibitors. The small molecule, TOFA (Sigma), diluted in dimethyl sulfoxide (DMSO) to the desired concentrations is added to cell culture medium to achieve inhibition of ACACA. TOFA is an allosteric inhibitor of ACACA, the enzyme which catalyzes the rate-limiting step of fatty acid synthesis. Various concentrations of TOFA are administered to cells in culture over time to assess dose-response suppression of proliferation. For in vivo treatment of mice, 25 mg/kg TOFA is administered daily by intraperitoneal injections (IP). The stock TOFA is diluted in DMSO to 10 mg/ml, such that the final injected volume is around 50 μl since the mice weigh about 20 g.\n(§4) Cell counting. A volume of cells is removed from culture medium and mixed with an equal volume of 0.4% Trypan blue stain. Then 10 μl hemocytometer for cell counting. Viable cell counts are used as a measure of cell proliferation."}, "[3]": {"system": "PGs and PIs", "assay": "DESI-MSI lipid profile in human RCC xenograft", "format": "in vivo, mouse", "method": "as §3\n(§5) Desorption Electrospray Ionization Mass Spectrometry Imaging (DESI-MSI). DESI-MSI is used for generating two-dimensional chemical maps of various tissues sections in order to assess the lipid profile of an organ. Tissue sections of 16 μm thick are imaged by this method using a lab-built DESI-MSI source coupled to an LTQ-Orbitrap XL mass spectrometer (Thermo Fisher Scientific, MA), and the mass spectra are acquired in negative ion mode using the Orbitrap as the mass analyzer at 60,000 resolving power. […] All tissues are histopathologically evaluated after imaging using standard hematoxylin and eosin (H&E) staining, to ensure a correct interpretation of lipid signals. […]"}, "[4]": {"system": "human RCC 786-O xenograft", "assay": "Human RCC 786-O xenograft in NSG mice", "format": "in vivo, mouse", "conditions": "25 mg/kg daily IP", "method": "as §1, §2"}, "[5]": {"system": "transgenic MYC-induced RCC", "assay": "Transgenic MYC-induced RCC mouse model, tumor growth (kidney weight and size, histology)", "format": "in vivo", "conditions": "25 mg/kg daily IP", "method": "as §3"}, "[6]": {"system": "PGs and PIs", "assay": "DESI-MSI lipid profile in transgenic MYC-induced RCC", "format": "in vivo, mouse", "method": "as §3, §5"}, "[7]": {"system": "human lymphoma B-cell line (P493-6)", "assay": "In vitro cell proliferation by total live cell counts, P493-6", "format": "cell-based", "conditions": "P493-6 cells, various concentrations", "method": "as §1, §3, §4"}, "[8]": {"system": "T-ALL (4188) cells", "assay": "In vitro cell growth, 4188", "format": "cell-based, mouse", "conditions": "4188 T-ALL cells", "method": "as §3, with “g. Cell counting. A volume of cells is removed from culture medium and mixed with an equal volume of 0.4% Trypan blue stain. Then 10 μl hemocytometer for cell counting. Viable cell counts are used as a measure of cell proliferation.” for “g.”"}, "[9]": {"system": "HCC (EC4) cells", "assay": "In vitro cell growth, EC4", "format": "cell-based, mouse", "method": "as §3, with “g. Cell counting. A volume of cells is removed from culture medium and mixed with an equal volume of 0.4% Trypan blue stain. Then 10 μl hemocytometer for cell counting. Viable cell counts are used as a measure of cell proliferation.” for “g.”"}},
  "note": "“Also recorded” adds a separate entry of the source.",
  "data": [
    {"smiles": "CCCCCCCCCCCCCCOc1ccc(C(=O)O)o1", "note": "[TOFA, 5-(tetradecyloxy)-2-furancarboxylic acid]", "values": [
      {"measurement": "tumor cell response in vitro", "setting": "[1]", "value": "exhibited tumor regression"},
      {"measurement": "rescue of growth inhibition by addition of oleate", "setting": "[2]; oleate added", "value": "partially rescuable; also recorded: partially rescued"},
      {"measurement": "cell growth / proliferation (total live cell counts)", "setting": "[2]", "value": "growth inhibited in vitro in a dose-dependent manner; also recorded: similar"},
      {"measurement": "PGs and PIs by DESI-MSI", "setting": "[3]", "value": "block PGs and PIs"},
      {"measurement": "xenograft tumor growth", "setting": "[4]", "value": "regresses; also recorded: exhibited tumor regression"},
      {"measurement": "tumor progression / regression, treatment after tumor onset", "setting": "[5]; treatment at week 2 (15 day MYC on tumor), kidney weight and size, histology", "value": "regressed; also recorded: induced tumor regression; also recorded: significantly reduces kidney tumor progression"},
      {"measurement": "tumor growth / tumorigenesis, treatment before tumor onset", "setting": "[5]; treatment from week 0 (day 0 MYC on)", "value": "blocked; also recorded: prevented tumor growth; also recorded: completely prevents tumorigenesis"},
      {"measurement": "PGs and PIs by DESI-MSI during tumor initiation and regression", "setting": "[6]", "value": "suppressed; also recorded: block PGs and PIs"},
      {"measurement": "cell growth / proliferation (total live cell counts)", "setting": "[7]", "value": "growth inhibited in vitro in a dose-dependent manner; also recorded: decreased in a dose-dependent manner"}
    ]},
    {"smiles": "C/C=C/C/C=C/CCC(=O)[C@H]1O[C@H]1C(N)=O", "note": "[cerulenin, Cerulenin]", "values": [
      {"measurement": "cell growth / proliferation (total live cell counts)", "setting": "[2]", "value": "growth inhibited in vitro in a dose-dependent manner"},
      {"measurement": "cell growth", "setting": "[8]", "value": "growth inhibited in vitro in a dose-dependent manner"},
      {"measurement": "cell growth", "setting": "[9]", "value": "growth inhibited in vitro in a dose-dependent manner"},
      {"measurement": "cell growth / proliferation (total live cell counts)", "setting": "[7]", "value": "growth inhibited in vitro in a dose-dependent manner"},
      {"measurement": "cell growth / proliferation (total live cell counts)", "setting": "[7]; listed as Cerulenin", "value": "decreased in a dose-dependent manner"}
    ]}
  ]
}
